# From PubChem BioAssay (NCI)
#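 Assay format: 96-well plates, 48-hour exposure. The concentration for 50% growth inhibition is given as GI50. TGI is the concentration that stops growth completely.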
# Key:
# Experiment in all cases: DTP human tumour cell line panel, 48 h
# SF-268 CNS = test system: SF-268 CNS
# NCI-H460 lung = test system: NCI-H460 lung
# SK-MEL-28 melanoma = test system: SK-MEL-28 melanoma
# OVCAR-4 ovarian = test system: OVCAR-4 ovarian
# KM12 colon = test system: KM12 colon
# SNB-75 CNS = test system: SNB-75 CNS
# SF-295 CNS = test system: SF-295 CNS
# CAKI-1 renal = test system: CAKI-1 renal
# NCI/ADR-RES ovarian = test system: NCI/ADR-RES ovarian
# SK-MEL-2 melanoma = test system: SK-MEL-2 melanoma
# HCT-15 colon = test system: HCT-15 colon
# SNB-19 CNS = test system: SNB-19 CNS
# HS 578T breast = test system: HS 578T breast
# A498 renal = test system: A498 renal
# K-562 leukemia = test system: K-562 leukemia
# HOP-92 NSCLC = test system: HOP-92 NSCLC
# SK-MEL-5 melanoma = test system: SK-MEL-5 melanoma
# SF-539 CNS = test system: SF-539 CNS
# DU-145 prostate = test system: DU-145 prostate
# COLO 205 colon = test system: COLO 205 colon
# MDA-MB-231 breast = test system: MDA-MB-231 breast
# OVCAR-8 ovarian = test system: OVCAR-8 ovarian
# UO-31 renal = test system: UO-31 renal
# M14 melanoma = test system: M14 melanoma
# RXF 393 renal = test system: RXF 393 renal
# NCI-H226 lung = test system: NCI-H226 lung
# CCRF-CEM leukemia = test system: CCRF-CEM leukemia
# 786-0 renal = test system: 786-0 renal
# BT-549 breast = test system: BT-549 breast
# SN12C renal = test system: SN12C renal
# NCI-H522 lung = test system: NCI-H522 lung
# SK-OV-3 ovarian = test system: SK-OV-3 ovarian
# U251 CNS = test system: U251 CNS
# HCC-2998 colon = test system: HCC-2998 colon
# MDA-MB-435 = test system: MDA-MB-435
# MALME-3M melanoma = test system: MALME-3M melanoma
# PC-3 prostate = test system: PC-3 prostate
# MOLT-4 leukemia = test system: MOLT-4 leukemia
# LOX IMVI melanoma = test system: LOX IMVI melanoma
# TK-10 renal = test system: TK-10 renal
# HT29 colon = test system: HT29 colon
# HCT-116 colon = test system: HCT-116 colon
# SW-620 colon = test system: SW-620 colon
# MCF7 breast = test system: MCF7 breast
# A549 NSCLC = test system: A549 NSCLC
# ACHN renal = test system: ACHN renal
# SR leukemia = test system: SR leukemia
# UACC-62 melanoma = test system: UACC-62 melanoma
# T-47D breast = test system: T-47D breast
# OVCAR-5 ovarian = test system: OVCAR-5 ovarian
# EKVX NSCLC = test system: EKVX NSCLC
structure (smiles),measurement,setting,value
C#CC(=O)Nc1cccc2c1cc(C)n2-c1nc2c(c(NCc3ccccc3)n1)CCCC2,GI50,SF-268 CNS,199 nM
same,TGI,SF-268 CNS,438 nM
same,GI50,NCI-H460 lung,759 nM
same,TGI,NCI-H460 lung,2590 nM
same,GI50,SK-MEL-28 melanoma,1220 nM
same,TGI,SK-MEL-28 melanoma,2790 nM
same,GI50,OVCAR-4 ovarian,208 nM
same,TGI,OVCAR-4 ovarian,491 nM
same,GI50,KM12 colon,213 nM
same,TGI,KM12 colon,546 nM
same,GI50,SNB-75 CNS,141 nM
same,TGI,SNB-75 CNS,294 nM
same,GI50,SF-295 CNS,207 nM
same,TGI,SF-295 CNS,510 nM
same,GI50,CAKI-1 renal,478 nM
same,TGI,CAKI-1 renal,942 nM
same,GI50,NCI/ADR-RES ovarian,127 nM
same,TGI,NCI/ADR-RES ovarian,645 nM
same,GI50,SK-MEL-2 melanoma,1250 nM
same,TGI,SK-MEL-2 melanoma,2920 nM
same,GI50,HCT-15 colon,167 nM
same,TGI,HCT-15 colon,409 nM
same,GI50,SNB-19 CNS,845 nM
same,TGI,SNB-19 CNS,2660 nM
same,GI50,HS 578T breast,353 nM
same,TGI,HS 578T breast,3070 nM
same,GI50,A498 renal,1750 nM
same,TGI,A498 renal,3740 nM
same,GI50,K-562 leukemia,368 nM
same,TGI,K-562 leukemia,3450 nM
same,GI50,HOP-92 NSCLC,142 nM
same,TGI,HOP-92 NSCLC,315 nM
same,GI50,SK-MEL-5 melanoma,98.5 nM
same,TGI,SK-MEL-5 melanoma,259 nM
same,GI50,SF-539 CNS,172 nM
same,TGI,SF-539 CNS,337 nM
same,GI50,DU-145 prostate,1180 nM
same,TGI,DU-145 prostate,2540 nM
same,GI50,COLO 205 colon,267 nM
same,TGI,COLO 205 colon,803 nM
same,GI50,MDA-MB-231 breast,57.8 nM
same,TGI,MDA-MB-231 breast,261 nM
same,GI50,OVCAR-8 ovarian,136 nM
same,TGI,OVCAR-8 ovarian,779 nM
same,GI50,UO-31 renal,46.6 nM
same,TGI,UO-31 renal,124 nM
same,GI50,M14 melanoma,303 nM
same,TGI,M14 melanoma,1130 nM
same,GI50,RXF 393 renal,152 nM
same,TGI,RXF 393 renal,311 nM
same,GI50,NCI-H226 lung,250 nM
same,TGI,NCI-H226 lung,644 nM
same,GI50,CCRF-CEM leukemia,25.5 nM
same,TGI,CCRF-CEM leukemia,60.5 nM
same,GI50,786-0 renal,18.9 nM
same,TGI,786-0 renal,35.9 nM
same,GI50,BT-549 breast,137 nM
same,TGI,BT-549 breast,324 nM
same,GI50,SN12C renal,70.6 nM
same,TGI,SN12C renal,427 nM
same,GI50,NCI-H522 lung,17.4 nM
same,TGI,NCI-H522 lung,37.2 nM
same,GI50,SK-OV-3 ovarian,519 nM
same,TGI,SK-OV-3 ovarian,1090 nM
same,GI50,U251 CNS,178 nM
same,TGI,U251 CNS,338 nM
same,GI50,HCC-2998 colon,335 nM
same,TGI,HCC-2998 colon,1000 nM
same,GI50,MDA-MB-435,463 nM
same,TGI,MDA-MB-435,1660 nM
same,GI50,MALME-3M melanoma,54.7 nM
same,TGI,MALME-3M melanoma,195 nM
same,GI50,PC-3 prostate,186 nM
same,TGI,PC-3 prostate,351 nM
same,GI50,MOLT-4 leukemia,150 nM
same,TGI,MOLT-4 leukemia,443 nM
same,GI50,LOX IMVI melanoma,< 13.2 nM
same,TGI,LOX IMVI melanoma,< 18.4 nM
same,GI50,TK-10 renal,1660 nM
same,TGI,TK-10 renal,3090 nM
same,GI50,HT29 colon,54.3 nM
same,TGI,HT29 colon,121 nM
same,GI50,HCT-116 colon,174 nM
same,TGI,HCT-116 colon,415 nM
same,GI50,SW-620 colon,200 nM
same,TGI,SW-620 colon,461 nM
same,GI50,MCF7 breast,226 nM
same,TGI,MCF7 breast,1230 nM
same,GI50,A549 NSCLC,1970 nM
same,TGI,A549 NSCLC,4100 nM
same,GI50,ACHN renal,273 nM
same,TGI,ACHN renal,786 nM
same,GI50,SR leukemia,< 20.1 nM
same,TGI,SR leukemia,50.7 nM
same,GI50,UACC-62 melanoma,165 nM
same,TGI,UACC-62 melanoma,351 nM
same,GI50,T-47D breast,697 nM
same,TGI,T-47D breast,3330 nM
same,GI50,OVCAR-5 ovarian,279 nM
same,TGI,OVCAR-5 ovarian,977 nM
same,GI50,EKVX NSCLC,1310 nM
same,TGI,EKVX NSCLC,2960 nM
